Reference: US7053070B2, “Pyrido[2,3-d]pyrimidine-2,7-diamine kinase inhibitors” (Warner-Lambert Company, priority 2000, dated 2006)
Structures can show the parent of a compound that is named as a salt.

Assays:
cdk2/cyclinA = cdk2/cyclinA (Homo sapiens, UniProt P24941); test: Cyclin dependent kinase 2 assay (cdk2/cyclinA), 32P incorporation, filter plate; type: biochemical; details: retinoblastoma substrate, 12 mM ATP, 25° C., 15 minutes; read-out: Inhibition of Cdks: IC50 Cdk2/A
Description: (§1) Cyclin Dependent Kinase 1 and 2 Assays (cdk1/cyclinB, cdk2/cyclinA, cdk2/cyclinE)
(§2) Enzyme assays for IC50 determinations and kinetic evaluation are performed in a 96-well filter plate (Millipore MADVN6550) in a total volume of 0.1 mL of 20 mM TRIS (tris[hydroxymethyl]aminomethane), at pH 7.4, 50 mM NaCl, 1 mM dithiothreitol, 10 mM MgCl2, […] containing 0.25 μCi of [^32P]ATP, 20 ng of enzyme (either cdk1/B, cdk2/A, or cdk2E), 1 μg retinoblastoma and appropriate dilutions of the particular invention compound. All components except the ATP are added to the wells, and the plate is placed on a plate mixer for 2 minutes. The reaction is begun by addition of [^32P]ATP, and the plate is incubated at 25° C. for 15 minutes. The reaction is terminated by addition of 0.1 mL of 20% TCA. The plate is kept at 4° C. for at least 1 hour to allow the substrate to precipitate. The wells are then washed 5 times with 0.2 mL of 10% TCA and ^32P incorporation determined with a beta plate counter (Wallac Inc., Gaithersburg, Md.).

cdk2/cyclinE = cdk2/cyclinE (Homo sapiens, UniProt P24941); test: Cyclin dependent kinase 2 assay (cdk2/cyclinE), 32P incorporation, filter plate; type: biochemical; details: retinoblastoma substrate, 12 mM ATP, 25° C., 15 minutes; read-out: Inhibition of Cdks: IC50 Cdk2/E
Description: as §1, §2

cdk1/cyclinB = cdk1/cyclinB (Homo sapiens, UniProt P06493); test: Cyclin dependent kinase 1 assay (cdk1/cyclinB), 32P incorporation, filter plate; type: biochemical; details: retinoblastoma substrate, 12 mM ATP, 25° C., 15 minutes; read-out: Inhibition of Cdks: IC50 Cdk1/B
Chain of cdk1/cyclinB (P06493 whole entry, species assumed): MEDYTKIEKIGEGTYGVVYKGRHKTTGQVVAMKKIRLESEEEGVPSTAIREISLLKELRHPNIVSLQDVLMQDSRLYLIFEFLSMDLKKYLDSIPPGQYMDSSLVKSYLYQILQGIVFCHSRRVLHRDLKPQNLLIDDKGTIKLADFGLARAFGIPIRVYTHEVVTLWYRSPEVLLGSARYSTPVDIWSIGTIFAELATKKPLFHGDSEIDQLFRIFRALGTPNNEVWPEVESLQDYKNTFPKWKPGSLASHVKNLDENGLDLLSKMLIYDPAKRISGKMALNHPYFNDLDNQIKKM
Chain of cdk1/cyclinB (P14635 whole entry partner, species assumed): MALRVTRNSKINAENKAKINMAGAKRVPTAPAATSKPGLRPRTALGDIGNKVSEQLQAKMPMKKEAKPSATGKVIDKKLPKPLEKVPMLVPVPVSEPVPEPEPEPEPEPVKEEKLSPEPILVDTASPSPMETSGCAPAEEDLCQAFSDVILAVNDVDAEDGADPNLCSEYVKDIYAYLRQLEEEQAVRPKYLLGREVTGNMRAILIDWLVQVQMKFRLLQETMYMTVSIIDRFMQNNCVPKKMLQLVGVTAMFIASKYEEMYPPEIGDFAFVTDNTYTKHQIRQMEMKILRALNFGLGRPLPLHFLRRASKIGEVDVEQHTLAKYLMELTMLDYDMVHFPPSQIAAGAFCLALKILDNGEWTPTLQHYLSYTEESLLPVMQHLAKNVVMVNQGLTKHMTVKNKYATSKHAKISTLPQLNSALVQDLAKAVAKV
Description: as §1, §2

cdk4/cyclinD = cdk4/cyclinD (Homo sapiens, UniProt P11802); test: Cyclin Dependent Kinase 4 (cdk-4) Assay, 32P incorporation, filter plate; type: biochemical; details: retinoblastoma substrate, 25 μM ATP, 25° C., 15 minutes; read-out: Inhibition of Cdks: IC50 Cdk4D
Chain of cdk4/cyclinD (P11802 whole entry, species assumed): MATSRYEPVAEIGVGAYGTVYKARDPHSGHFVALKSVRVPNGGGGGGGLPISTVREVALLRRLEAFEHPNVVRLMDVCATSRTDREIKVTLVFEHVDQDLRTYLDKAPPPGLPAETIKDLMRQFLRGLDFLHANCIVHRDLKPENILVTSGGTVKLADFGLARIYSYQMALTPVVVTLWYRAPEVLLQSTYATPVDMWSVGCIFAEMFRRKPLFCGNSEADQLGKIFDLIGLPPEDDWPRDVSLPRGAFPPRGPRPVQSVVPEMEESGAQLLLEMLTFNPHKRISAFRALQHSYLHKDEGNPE
Chain of cdk4/cyclinD (P24385 whole entry partner, species assumed): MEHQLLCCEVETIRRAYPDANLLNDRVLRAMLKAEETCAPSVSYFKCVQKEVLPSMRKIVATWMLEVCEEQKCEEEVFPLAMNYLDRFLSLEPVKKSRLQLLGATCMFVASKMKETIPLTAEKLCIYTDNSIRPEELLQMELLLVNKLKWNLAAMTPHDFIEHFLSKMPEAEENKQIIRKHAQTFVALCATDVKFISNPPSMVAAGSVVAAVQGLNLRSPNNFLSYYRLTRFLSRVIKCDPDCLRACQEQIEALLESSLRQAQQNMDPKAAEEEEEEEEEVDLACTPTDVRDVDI
Description: Cyclin Dependent Kinase 4 (cdk-4) Assay
Enzyme assays for IC50 determinations and kinetic evaluation are performed in 96-well filter plates (Millipore MADVN6550). The total volume is 0.1 mL containing a final concentration of 20 mM TRIS (tris[hydroxymethyl]aminomethane), at pH 7.4, 50 mM NaCl, 1 mM dithiothreitol, 10 mM MgCl2, 25 μM ATP containing 0.25 μCi of [^32P]ATP, 20 ng of cdk4, 1 μg of retinoblastoma, and appropriate dilutions of a compound of the present invention. All components except the ATP are added to the wells, and the plate is placed on a plate mixer for 2 minutes. The reaction is started by adding [^32P]ATP, and the plate is incubated at 25° C. for 15 minutes. The reaction is terminated by addition of 0.1 mL of 20% trichloroacetic acid (TCA). The plate is kept at 4° C. for at least 1 hour to allow the substrate to precipitate. The wells are then washed 5 times with 0.2 mL of 10% TCA and ^32P incorporation is determined with a beta plate counter (Wallac Inc., Gaithersburg, Md.).

Row | Compound | melting point | IC50 (cdk2/cyclinA) | IC50 (cdk2/cyclinE) | IC50 (cdk1/cyclinB) | IC50 (cdk4/cyclinD)
1 | O=C(Nc1ccc2cnc(Nc3ccc(N4CCNCC4)cc3)nc2n1)NC1CCCCC1 (as salt: salt) [Compound 9, 1-Cyclohexyl-3-[2-(4-piperazin-1-yl-phenylamino)-pyrido[2,3-d]pyrimidin-7-yl]-urea] | 200 °C (dec.) |  |  |  | 
2 | O=C(Nc1ccc2cnc(Nc3ccc(N4CCNCC4)cc3)nc2n1)NC1CCCC1 (as salt: salt) [Compound 51, 1-Cyclopentyl-3-[2-(4-piperazin-1-yl-phenylamino)-pyrido[2,3-d]pyrimidin-7-yl]-urea] | 210 to 213 °C (dec.) |  |  |  | 
3 | C[C@@H]1CN(c2ccc(Nc3ncc4cc(Br)c(NC(=O)NC5CCCCC5)nc4n3)cc2)C[C@H](C)N1 (as salt: salt) [Compound 95, 1-{6-Bromo-2-[4-(cis-3,5-dimethyl-piperazin-1-yl)-phenylamino]-pyrido[2,3-d]pyrimidin-7-yl}-3-cyclohexyl-urea] | 198 °C (dec.) |  |  |  | 
4 | CNC(=O)Nc1nc2nc(Nc3ccc(N4CCNCC4)cc3)ncc2cc1Br [Compound 93, 1-[6-Bromo-2-(4-piperazin-1-yl-phenylamino)-pyrido[2,3-d]pyrimidin-7-yl]-3-methyl-urea] |  | > 5000 nM | > 5000 nM | > 5000 nM | > 5000 nM
5 | C[C@@H]1CN(c2ccc(Nc3ncc4cc(Br)c(NC(=O)NC(C)(C)C)nc4n3)cc2)C[C@H](C)N1 [Compound 94, 1-{6-Bromo-2-[4-(cis-3,5-dimethyl-piperazin-1-yl)-phenylamino]-pyrido[2,3-d]pyrimidin-7-yl}-3-tert-butyl-urea] |  |  | > 5000 nM |  | 101 nM
6 | C[C@@H]1CN(c2ccc(Nc3ncc4cc(Br)c(NC(=O)NC5CCCCC5)nc4n3)cc2)C[C@H](C)N1 [Compound 95, 1-{6-Bromo-2-[4-(cis-3,5-dimethyl-piperazin-1-yl)-phenylamino]-pyrido[2,3-d]pyrimidin-7-yl}-3-cyclohexyl-urea] |  |  | > 5000 nM |  | 310 nM
7 | CC1(C)CN(c2ccc(Nc3ncc4cc(F)c(NC(=O)NC5CCCCC5)nc4n3)cc2)CCN1 [Compound 100, 1-Cyclohexyl-3-{2-[4-(3,3-dimethyl-piperazin-1-yl)-phenylamino]-6-fluoro-pyrido[2,3-d]pyrimidin-7-yl}-urea] |  | 153 nM | 415 nM | 265 nM | 35 nM
8 | C[C@@H]1CN(c2ccc(Nc3ncc4cc(F)c(NC(=O)NC(C)(C)C)nc4n3)cc2)C[C@H](C)N1 [Compound 102, 1-tert-Butyl-3-{2-[4(cis-3,5-dimethyl-piperazin-1-yl)-phenylamino]-6-fluoro-pyrido[2,3-d]pyrimidin-7-yl}-urea] |  | 3590 nM | 4500 nM | 3130 nM | 165 nM
9 | C[C@@H]1CN(c2ccc(Nc3ncc4ccc(N(C)C(=O)NC5CCCCC5)nc4n3)cc2)C[C@H](C)N1 [Compound 106, 3-Cyclohexyl-1-{2-[4-(cis-3,5-dimethyl-piperazin-1-yl)-phenylamino]-pyrido[2,3-d]pyrimidin-7-}-1-methyl-urea] | 170 °C (dec.) | 350 nM | 440 nM |  | 
10 | CCN(C(=O)NC1CCCCC1)c1ccc2cnc(Nc3ccc(N4CCNCC4)cc3)nc2n1 [Compound 107, 3-Cyclohexyl-1-ethyl-1-[2-(4-piperazin-1-yl-phenylamino)-pyrido[2,3-d]pyrimidin-7-yl]-urea] |  | 1950 nM | 1650 nM | 1730 nM | 19 nM
11 | CCN(C(=O)NC(C)(C)C)c1ccc2cnc(Nc3ccc(N4C[C@@H](C)N[C@@H](C)C4)cc3)nc2n1 [Compound 108, 3-tert-Butyl-1-{2-[4(cis-3,5-dimethyl-piperazin-1-yl)-phenylamino]-pyrido[2,3-d]pyrimidin-7-yl}-1-ethyl-urea] |  | 2030 nM | 3050 nM | 2420 nM | 67 nM
12 | CC1(C)CN(c2ccc(Nc3ncc4ccc(NC(=O)NC5CCCCC5)nc4n3)cc2)CCN1 [Compound 115, 1-Cyclohexyl-3-{2-[4-(3,3-dimethyl-piperazin-1-yl)-phenylamino]-pyrido[2,3-d]pyrimidin-7-yl}-urea] |  | 22 nM | 51 nM | 94 nM | 7 nM
13 | Cc1cc2cnc(Nc3ccc(N4C[C@@H](C)N[C@@H](C)C4)cc3)nc2nc1NC(=O)NC1CCCCC1 [Compound 116, 1-Cyclohexyl-3-{2-[4-(cis-3,5-dimethyl-piperazin-1-yl)-phenylamino]-6-methyl-pyrido[2,3-d]pyrimidin-7-yl}-urea] |  | > 5000 nM | 3750 nM | > 5000 nM | 313 nM
14 | Cc1cc2cnc(Nc3ccc(N4C[C@@H](C)N[C@@H](C)C4)cc3)nc2nc1NC(=O)NC(C)C [Compound 119, 1-{2-[4-(cis-3,5-Dimethyl-piperazin-1-yl)-phenylamino]-6-methyl-pyrido[2,3-d]pyrimidin-7-yl}-3-isopropyl-urea] |  | > 5000 nM | > 5000 nM | > 5000 nM | 1600 nM
15 | Cc1cc2cnc(Nc3ccc(N4C[C@@H](C)N[C@@H](C)C4)cc3)nc2nc1NC(=O)NC1CC1 [Compound 120, 1-Cyclopropyl-3-{2-[4-(cis-3,5-dimethyl-piperazin-1-yl)-phenylamino]-6-methyl-pyrido[2,3-d]pyrimidin-7-yl}-urea] |  | > 5000 nM | > 5000 nM | > 5000 nM | 1900 nM
16 | CCc1cc2cnc(Nc3ccc(N4C[C@@H](C)N[C@@H](C)C4)cc3)nc2nc1NC(=O)NC(C)(C)C [Compound 121, 1-tert-Butyl-3-{2-[4-(cis-3,5-dimethyl-piperazin-1-yl)-phenylamino]-6-ethyl-pyrido[2,3-d]pyrimidin-7-yl}-urea] |  | > 5000 nM | > 5000 nM | > 5000 nM | 92 nM

Further lines, results first:

Row | melting point | IC50 (cdk2/cyclinA) | IC50 (cdk2/cyclinE) | IC50 (cdk1/cyclinB) | IC50 (cdk4/cyclinD) | Compound
17 | 215 °C (dec.) |  |  |  |  | CC(C)(C)NC(=O)Nc1ccc2cnc(Nc3ccc(N4CCNCC4)cc3)nc2n1 (as salt: salt) [Compound 1, 1-tert-Butyl-3-[2-(4-piperazin-1-yl-phenylamino)-pyrido[2,3-d]pyrimidin-7-yl]-urea]
18 | 190 °C (dec.) |  |  |  |  | CC(C)NC(=O)Nc1ccc2cnc(Nc3ccc(N4CCNCC4)cc3)nc2n1 (as salt: salt) [Compound 48, 1-Isopropyl-3-[2-(4-piperazin-1-yl-phenylamino)-pyrido[2,3-d]pyrimidin-7-yl]-urea]
19 |  | 113 nM | 98 nM | 257 nM | 18 nM | CC(C)NC(=O)Nc1ccc2cnc(Nc3ccc(N4CCNCC4)cc3)nc2n1 [Compound 48, 1-Isopropyl-3-[2-(4-piperazin-1-yl-phenylamino)-pyrido[2,3-d]pyrimidin-7-yl]-urea]
20 |  | 24 nM | 30 nM | 53 nM | 4 nM | O=C(Nc1ccc2cnc(Nc3ccc(N4CCNCC4)cc3)nc2n1)NC1CCCC1 [Compound 51, 1-Cyclopentyl-3-[2-(4-piperazin-1-yl-phenylamino)-pyrido[2,3-d]pyrimidin-7-yl]-urea]
21 |  | > 5000 nM | > 5000 nM | > 5000 nM | 70 nM | CC(C)(C)NC(=O)Nc1nc2nc(Nc3ccc(N4CCNCC4)cc3)ncc2cc1Br [Compound 91, 1-[6-Bromo-2-(4-piperazin-1-yl-phenylamino)-pyrido[2,3-d]pyrimidin-7-yl]-3-tert-butyl-urea]
22 |  | > 5000 nM | > 5000 nM | > 5000 nM | 3000 nM | CCOC(=O)c1cc2cnc(Nc3ccc(N4CCNCC4)cc3)nc2nc1NC(=O)NC(C)(C)C [Compound 113, 7-(3-tert-Butyl-ureido)-2-(4-piperazin-1-yl-phenylamino)-pyrido[2,3-d]pyrimidine-6-carboxylic acid ethyl ester]
23 |  | > 5000 nM | 3800 nM | > 5000 nM | 79 nM | Cc1cc2cnc(Nc3ccc(N4CCNCC4)cc3)nc2nc1NC(=O)NC(C)(C)C [Compound 118]
